Measured values taken from ChEMBL document CHEMBL3864146, “5-Alkyloxytryptamines are membrane-targeting, broad-spectrum antibiotics” (Bioorg Med Chem Lett, 2016).
The source made the active and inactive calls.

Assays:
Acinetobacter baumannii [1] = test: Antibacterial activity against Acinetobacter baumannii after 16 to 18 hrs by micro-dilution method; type: functional
Staphylococcus aureus [2] = test: Antibacterial activity against Staphylococcus aureus after 16 to 18 hrs by micro-dilution method; type: functional
Escherichia coli [3] = test: Antibacterial activity against Escherichia coli BW25113 after 16 to 18 hrs by micro-dilution method; type: functional
Bacillus subtilis [4] = test: Antibacterial activity against Bacillus subtilis 168 after 16 to 18 hrs by micro-dilution method; type: functional; conditions: subsp. subtilis str. 168
Escherichia coli [5] = test: Antibacterial activity against tolC-deficient Escherichia coli BW25113 after 16 to 18 hrs by micro-dilution method; type: functional
Salmonella typhimurium [6] = test: Antibacterial activity against Salmonella typhimurium after 16 to 18 hrs by micro-dilution method; type: functional, Salmonella enterica subsp. enterica serovar Typhimurium; conditions: Salmonella enterica
Klebsiella pneumoniae [7] = test: Antibacterial activity against Klebsiella pneumoniae after 16 to 18 hrs by micro-dilution method; type: functional
Klebsiella aerogenes [8] = test: Antibacterial activity against Enterobacter aerogenes after 16 to 18 hrs by micro-dilution method; type: functional
Morganella morganii [9] = test: Antibacterial activity against Morganella morganii after 16 to 18 hrs by micro-dilution method; type: functional
Vibrio cholerae [10] = test: Antibacterial activity against Vibrio cholerae after 16 to 18 hrs by micro-dilution method; type: functional
Pseudomonas aeruginosa [11] = test: Antibacterial activity against Pseudomonas aeruginosa after 16 to 18 hrs by micro-dilution method; type: functional
Shigella boydii [12] = test: Antibacterial activity against Shigella boydii after 16 to 18 hrs by micro-dilution method; type: functional
Edwardsiella tarda [13] = test: Antibacterial activity against Edwardsiella tarda after 16 to 18 hrs by micro-dilution method; type: functional
Escherichia coli [14] = test: Induction of membrane permeabilization in Escherichia coli BW25113 at MIC after 15 mins by propidium iodide staining-based fluorescence microplate reader method relative to 50% ethanol; type: functional
Pseudomonas aeruginosa [15] = test: Bactericidal activity against Pseudomonas aeruginosa after 22 hrs by micro-dilution method; type: functional
Morganella morganii [16] = test: Bactericidal activity against Morganella morganii after 22 hrs by micro-dilution method; type: functional
Escherichia coli [17] = test: Antibacterial activity against Escherichia coli 5-NOT mutant 15-1 harboring ydeA gene mutation by multiple copy suppression assay; type: functional
Edwardsiella tarda [18] = test: Bactericidal activity against Edwardsiella tarda after 22 hrs by micro-dilution method; type: functional
Escherichia coli [19] = test: Adjuvant activity assessed as potentiation of chloramphenicol-induced antibacterial activity against Escherichia coli BW25113 at 0.5 times MIC after 16 to 18 hrs by checkerboard assay (reference value: 8 ng/ml); type: functional
Escherichia coli [20] = test: Antibacterial activity against Escherichia coli 5-NOT mutant 8 harboring ydeA gene mutation by multiple copy suppression assay; type: functional
Escherichia coli [21] = test: Adjuvant activity assessed as potentiation of chloramphenicol-induced antibacterial activity against Escherichia coli BW25113 at 0.25 times MIC after 16 to 18 hrs by checkerboard assay (reference value: 8 ng/ml); type: functional
Staphylococcus aureus [22] = test: Ratio of MBC to MIC for Staphylococcus aureus; type: functional
Escherichia coli [23] = test: Antibacterial activity against Escherichia coli 5-NOT mutant 15-1 harboring thrS gene mutation by multiple copy suppression assay; type: functional
Escherichia coli [24] = test: Antibacterial activity against Escherichia coli 5-NOT mutant 8 harboring pykA gene mutation by multiple copy suppression assay; type: functional
Escherichia coli [25] = test: Ratio of MBC to MIC for tolC-deficient Escherichia coli BW25113; type: functional
Streptococcus pyogenes [26] = test: Antibacterial activity against Streptococcus pyogenes after 16 to 18 hrs; type: functional
Klebsiella pneumoniae [27] = test: Bactericidal activity against Klebsiella pneumoniae after 22 hrs by micro-dilution method; type: functional
Pseudomonas aeruginosa [28] = test: Ratio of MBC to MIC for Pseudomonas aeruginosa; type: functional
Acinetobacter baumannii [29] = test: Bactericidal activity against Acinetobacter baumannii after 22 hrs by micro-dilution method; type: functional
Escherichia coli [30] = test: Ratio of MBC to MIC for Escherichia coli BW25113 after 16 to 18 hrs by micro-dilution method; type: functional
Edwardsiella tarda [31] = test: Ratio of MBC to MIC for Edwardsiella tarda; type: functional
Salmonella typhimurium [32] = test: Bactericidal activity against Salmonella typhimurium after 22 hrs by micro-dilution method; type: functional, Salmonella enterica subsp. enterica serovar Typhimurium; conditions: Salmonella enterica
Escherichia coli [33] = test: Bactericidal activity against tolC-deficient Escherichia coli BW25113 after 22 hrs by micro-dilution method; type: functional; conditions: BW25113, 22 h
Bacillus subtilis [34] = test: Bactericidal activity against Bacillus subtilis 168 after 22 hrs by micro-dilution method; type: functional; conditions: subsp. subtilis str. 168, 22 h
Streptococcus pyogenes [35] = test: Bactericidal activity against Streptococcus pyogenes after 22 hrs; type: functional
Escherichia coli [36] = test: Antibacterial activity against Escherichia coli BW25113 by multiple copy suppression assay; type: functional
Escherichia coli [37] = test: Adjuvant activity assessed as potentiation of ciprofloxacin-induced antibacterial activity against Escherichia coli BW25113 at 0.5 times MIC after 16 to 18 hrs by checkerboard assay (reference value: 13 ng/ml); type: functional
Klebsiella pneumoniae [38] = test: Ratio of MBC to MIC for Klebsiella pneumoniae; type: functional
Vibrio cholerae [39] = test: Bactericidal activity against Vibrio cholerae after 22 hrs by micro-dilution method; type: functional
Streptococcus pyogenes [40] = test: Ratio of MBC to MIC for Streptococcus pyogenes; type: functional
Vibrio cholerae [41] = test: Ratio of MBC to MIC for Vibrio cholerae; type: functional
Escherichia coli [42] = test: Adjuvant activity assessed as potentiation of rifampicin-induced antibacterial activity against Escherichia coli BW25113 at 0.5 times MIC after 16 to 18 hrs by checkerboard assay (reference value: 8 ng/ml); type: functional
Morganella morganii [43] = test: Ratio of MBC to MIC for Morganella morganii; type: functional
Klebsiella aerogenes [44] = test: Ratio of MBC to MIC for Enterobacter aerogenes; type: functional
Escherichia coli [45] = test: Adjuvant activity assessed as potentiation of tetracycline-induced antibacterial activity against Escherichia coli BW25113 at 0.5 times MIC after 16 to 18 hrs by checkerboard assay (reference value: 2 ng/ml); type: functional
Staphylococcus aureus [46] = test: Bactericidal activity against Staphylococcus aureus after 22 hrs by micro-dilution method; type: functional
Escherichia coli [47] = test: Adjuvant activity assessed as potentiation of rifampicin-induced antibacterial activity against Escherichia coli BW25113 at 0.25 times MIC after 16 to 18 hrs by checkerboard assay (reference value: 8 ng/ml); type: functional
Homo sapiens = organism: Homo sapiens; test: Selectivity ratio of Ki for 5-HT1A receptor (unknown origin) to Ki for human 5-HT1D receptor
Bacillus subtilis [48] = test: Ratio of MBC to MIC for Bacillus subtilis 168; type: functional, subsp. subtilis str. 168
Escherichia coli [49] = test: Induction of membrane permeabilization in Escherichia coli BW25113 at MIC to 2 times MIC after 5 mins by propidium iodide staining-based flow cytometric method; type: functional
Escherichia coli [50] = test: Adjuvant activity assessed as potentiation of ciprofloxacin-induced antibacterial activity against Escherichia coli BW25113 at 0.25 times MIC after 16 to 18 hrs by checkerboard assay (reference value: 13 ng/ml); type: functional
Escherichia coli [51] = test: Antibacterial activity against Escherichia coli 5-NOT mutant 8 harboring otsA gene mutation by multiple copy suppression assay; type: functional
Shigella boydii [52] = test: Bactericidal activity against Shigella boydii after 22 hrs by micro-dilution method; type: functional
Escherichia coli [53] = test: Antibacterial activity against Escherichia coli 5-NOT mutant 15-1 harboring pykA gene mutation by multiple copy suppression assay; type: functional
Acinetobacter baumannii [54] = test: Ratio of MBC to MIC for Acinetobacter baumannii; type: functional
Salmonella typhimurium [55] = test: Ratio of MBC to MIC for Salmonella typhimurium; type: functional, Salmonella enterica subsp. enterica serovar Typhimurium
Escherichia coli [56] = test: Adjuvant activity assessed as potentiation of tetracycline-induced antibacterial activity against Escherichia coli BW25113 at 0.25 times MIC after 16 to 18 hrs by checkerboard assay (reference value: 2 ng/ml); type: functional
Escherichia coli [57] = test: Bactericidal activity against Escherichia coli BW25113 after 22 hrs by micro-dilution method; type: functional; conditions: BW25113, 22 h
Shigella boydii [58] = test: Ratio of MBC to MIC for Shigella boydii; type: functional
Klebsiella aerogenes [59] = test: Bactericidal activity against Enterobacter aerogenes after 22 hrs by micro-dilution method; type: functional

COc1ccc2c(CCN)c[nH]c2c1
> 60.8 µg/mL: MIC (Acinetobacter baumannii [1]) | MIC (Staphylococcus aureus [2]) | MIC (Escherichia coli [3]) | MIC (Bacillus subtilis [4]) | MIC (Escherichia coli [5])

NCCc1c[nH]c2ccc(O)cc12 [SEROTONIN]
> 56.4 µg/mL: MIC (Acinetobacter baumannii [1]) | MIC (Staphylococcus aureus [2]) | MIC (Escherichia coli [3]) | MIC (Bacillus subtilis [4]) | MIC (Escherichia coli [5])

CCCCCCCCCOc1cccc(CN)c1
4.7 µg/mL: MIC (Salmonella typhimurium [6]) | MIC (Bacillus subtilis [4]) | MIC (Escherichia coli [5]) | MIC (Vibrio cholerae [10])
38 µg/mL: MIC (Morganella morganii [9])
9.4 µg/mL: MIC (Klebsiella pneumoniae [7]) | MIC (Klebsiella aerogenes [8]) | MIC (Acinetobacter baumannii [1]) | MIC (Staphylococcus aureus [2]) | MIC (Escherichia coli [3]) | MIC (Shigella boydii [12])
> 75 µg/mL: MIC (Pseudomonas aeruginosa [11])
19 µg/mL: MIC (Edwardsiella tarda [13])

Cc1[nH]c2ccc(O)cc2c1CCN
> 60.8 µg/mL: MIC (Acinetobacter baumannii [1]) | MIC (Staphylococcus aureus [2]) | MIC (Escherichia coli [3]) | MIC (Bacillus subtilis [4]) | MIC (Escherichia coli [5])

CCCCOc1ccc2[nH]cc(CCN)c2c1.Cl
> 74.3 µg/mL: MIC (Acinetobacter baumannii [1]) | MIC (Staphylococcus aureus [2]) | MIC (Escherichia coli [3]) | MIC (Bacillus subtilis [4]) | MIC (Escherichia coli [5])
> 74 µg/mL: MIC (Salmonella typhimurium [6]) | MIC (Klebsiella pneumoniae [7]) | MIC (Klebsiella aerogenes [8]) | MIC (Morganella morganii [9]) | MIC (Vibrio cholerae [10]) | MIC (Pseudomonas aeruginosa [11]) | MIC (Shigella boydii [12]) | MIC (Edwardsiella tarda [13])
3%: Activity (Escherichia coli [14])

NCCc1c[nH]c2ccccc12 [TRYPTAMINE]
> 51 µg/mL: MIC (Acinetobacter baumannii [1]) | MIC (Staphylococcus aureus [2]) | MIC (Escherichia coli [3]) | MIC (Bacillus subtilis [4]) | MIC (Escherichia coli [5])

CCCCCCCCCOc1ccc2[nH]cc(CCN)c2c1.Cl
active: Activity (Escherichia coli [49])
24 µg/mL: MBC (Morganella morganii [16]) | MIC (Streptococcus pyogenes [26]) | MBC (Salmonella typhimurium [32]) | MBC (Streptococcus pyogenes [35]) | MBC (Vibrio cholerae [39])
0.013 µg/mL: MIC (Escherichia coli [37]) | MIC (Escherichia coli [50])
0.008 µg/mL: MIC (Escherichia coli [19]) | MIC (Escherichia coli [21]) | MIC (Escherichia coli [42]) | MIC (Escherichia coli [47])
12 µg/mL: MBC (Edwardsiella tarda [18]) | MBC (Escherichia coli [57])
6 to 24 µg/mL: MIC (Salmonella typhimurium [6]) | MIC (Klebsiella aerogenes [8]) | MIC (Vibrio cholerae [10])
24 to 96 µg/mL: MIC (Pseudomonas aeruginosa [11])
80 µM: MIC (Escherichia coli [17]) | MIC (Escherichia coli [20]) | MIC (Escherichia coli [23]) | MIC (Escherichia coli [24]) | MIC (Escherichia coli [36]) | MIC (Escherichia coli [51]) | MIC (Escherichia coli [53])
> 24 µg/mL: MBC (Klebsiella aerogenes [59])
>4: Ratio (Klebsiella aerogenes [44])
1: Ratio (Klebsiella pneumoniae [38]) | Ratio (Streptococcus pyogenes [40]) | Ratio (Bacillus subtilis [48]) | Ratio (Acinetobacter baumannii [54]) | Ratio (Shigella boydii [58])
100%: Activity (Escherichia coli [14])
0.76 µg/mL: MBC (Bacillus subtilis [34]) | MIC (Bacillus subtilis [4])
2: Ratio (Staphylococcus aureus [22]) | Ratio (Escherichia coli [30]) | Ratio (Edwardsiella tarda [31]) | Ratio (Morganella morganii [43])
4: Ratio (Escherichia coli [25]) | Ratio (Pseudomonas aeruginosa [28]) | Ratio (Vibrio cholerae [41]) | Ratio (Salmonella typhimurium [55])
300: Ratio Ki (Homo sapiens)
0.002 µg/mL: MIC (Escherichia coli [45]) | MIC (Escherichia coli [56])
96 µg/mL: MBC (Pseudomonas aeruginosa [15])
6 to 12 µg/mL: MIC (Edwardsiella tarda [13])
6 µg/mL: MIC (Klebsiella pneumoniae [7]) | MBC (Klebsiella pneumoniae [27]) | MIC (Acinetobacter baumannii [1]) | MBC (Acinetobacter baumannii [29]) | MIC (Staphylococcus aureus [2]) | MBC (Escherichia coli [33]) | MIC (Escherichia coli [3]) | MBC (Staphylococcus aureus [46]) | MBC (Shigella boydii [52]) | MIC (Shigella boydii [12])
1.5 µg/mL: MIC (Escherichia coli [5])
12 to 24 µg/mL: MIC (Morganella morganii [9])

CC(C)CCCC(C)CCOc1ccc2[nH]cc(CCN)c2c1.Cl (stereo not given)
6.3 µg/mL: MIC (Salmonella typhimurium [6]) | MIC (Staphylococcus aureus [2]) | MIC (Vibrio cholerae [10]) | MIC (Shigella boydii [12])
13 µg/mL: MIC (Klebsiella pneumoniae [7]) | MIC (Klebsiella aerogenes [8]) | MIC (Acinetobacter baumannii [1]) | MIC (Escherichia coli [3])
> 101 µg/mL: MIC (Morganella morganii [9])
25 µg/mL: MIC (Pseudomonas aeruginosa [11]) | MIC (Edwardsiella tarda [13])
1.6 µg/mL: MIC (Bacillus subtilis [4])
3.2 µg/mL: MIC (Escherichia coli [5])

COc1ccc2[nH]cc(CCN)c2c1 [5-METHOXYTRYPTAMINE]
> 60.8 µg/mL: MIC (Acinetobacter baumannii [1]) | MIC (Staphylococcus aureus [2]) | MIC (Escherichia coli [3]) | MIC (Bacillus subtilis [4]) | MIC (Escherichia coli [5])
